Here are results for 45 molecules from patent US20240217966A1, “PHARMACEUTICAL COMPOSITION CONTAINING GLP-1 RECEPTOR AGONIST HAVING FUSED RING” (Shionogi & Co., Ltd., priority 2021, published 2024).

In this experiment the target is T1, Human GLP-1 receptor (Homo sapiens, UniProt P43220).
T1 construct: expressed in transfected cells
Briefly: Measurement of GLP-1 receptor agonist activity (cAMP assay). Type of experiment: cell-based. To be noted: cAMP increase in GLP-1 R/CHO-K1 cells, 2 nM human GLP-1 (7-36) = 100%, DMSO only = 0%; for Emax: CHO-K1, maximum effect, read-out: Emax. The method, boiled down: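 hGLP-1R/CHO-K1 cells in HBSS with 0.1% BSA, 20 mM HEPES, 0.1 mM IBMX and 0.2 mM RO20-1724 exposed to compound plus forskolin (400 μM stock) for 1 h at 37 °C. Intracellular cAMP read by HTRF (cAMP-d2/anti-cAMP cryptate, 1 h at room temperature).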
Background: Cyclic AMP is a second messenger, typically raised through Gs and lowered through Gi signalling.

The term Emax denotes the greatest response seen or fitted, relative to the assay's reference. As a reminder, the EC50 is the concentration that produces a half-maximal response. Low values mean higher potency in that assay, high ones lower potency in that assay.

T1 sequence (P43220 24-463): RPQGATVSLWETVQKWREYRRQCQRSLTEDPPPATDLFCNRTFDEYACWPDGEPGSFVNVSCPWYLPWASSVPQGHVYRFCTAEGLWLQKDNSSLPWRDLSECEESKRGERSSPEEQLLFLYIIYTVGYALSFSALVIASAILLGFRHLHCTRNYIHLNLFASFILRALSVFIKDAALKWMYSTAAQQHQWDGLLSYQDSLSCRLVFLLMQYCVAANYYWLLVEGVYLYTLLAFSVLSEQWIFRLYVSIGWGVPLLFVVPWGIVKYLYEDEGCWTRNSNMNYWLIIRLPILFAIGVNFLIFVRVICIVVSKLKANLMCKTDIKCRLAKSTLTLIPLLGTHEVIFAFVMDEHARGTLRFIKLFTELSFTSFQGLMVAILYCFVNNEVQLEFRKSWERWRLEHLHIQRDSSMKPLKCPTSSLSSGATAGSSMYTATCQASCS

Regarding `C[C@H]1c2nc(OCc3ccccc3Cl)c(C(F)(F)F)cc2CCN1Cc1nc2ccc(C(=O)O)nc2n1C[C@@H]1CCO1` [Compound I-287], the Emax came out at 116% and the half-maximal effective concentration (EC50) was 0.103 nM. On to `C[C@H]1c2nc(OCc3ccc(F)cc3F)c(C(F)(F)F)cc2CCN1Cc1nc2ccc(C(=O)O)nc2n1C[C@@H]1CCO1` [Compound I-288], for which the Emax turned out to be 115% and the half-maximal effective concentration (EC50) is 0.171 nM. Turning to `C[C@H]1c2nc(OCc3ccc(OC(F)F)cc3F)c(C(F)(F)F)cc2CCN1Cc1nc2ccc(C(=O)O)nc2n1C[C@@H]1CCO1` [Compound I-289], the Emax was determined as 117% and the EC50 was determined as 0.311 nM.

Take `C[C@H]1c2nc(OCc3ccc(F)cc3)c(C(F)(F)F)cc2CCN1Cc1nc2ccc(C(=O)O)nc2n1C[C@@H]1CCO1` [Compound I-290]: the Emax came out at 118% and a half-maximal response (EC50) required 0.266 nM. For the molecule `C[C@H]1c2nc(OCc3c(F)cc(Cl)cc3F)c(C(F)(F)F)cc2CCN1Cc1nc2ccc(C(=O)O)nc2n1C[C@@H]1CCO1` [Compound I-291], the Emax worked out at 120% and the EC50 stood at 0.0864 nM. On to `C[C@H]1c2nc(OCc3c(F)cc(F)cc3F)c(C(F)(F)F)cc2CCN1Cc1nc2ccc(C(=O)O)nc2n1C[C@@H]1CCO1` [Compound I-292], for which the maximum response (Emax) stood at 121% and the response was half-maximal at 0.146 nM (EC50).

With `O=C(O)c1ccc2nc(CN3CCc4cc(C(F)(F)F)c(OCc5ccc(Cl)cc5)nc4C3)n(C[C@@H]3CCO3)c2c1F` [Compound I-294], the Emax turned out to be 97.7%.

On to `Cc1ccc(COc2nc3c(cc2C(F)(F)F)CCN(Cc2nc4ccc(C(=O)O)c(F)c4n2C[C@@H]2CCO2)C3)cc1` [Compound I-295], for which the Emax amounted to 108% and the response was half-maximal at 1.29 nM (EC50). With `COc1cc(Cl)ccc1COc1nc2c(cc1C(F)(F)F)CCN(Cc1nc3ccc(C(=O)O)c(F)c3n1C[C@@H]1CCO1)C2` [Compound I-296], the Emax was found to be 117%. With `O=C(O)c1ccc2nc(CN3CCc4cc(C(F)(F)F)c(OCc5ccc(F)cc5F)nc4C3)n(C[C@@H]3CCO3)c2c1F` [Compound I-297], the Emax was 102% and the EC50 was 0.818 nM. In the case of `O=C(O)c1ccc2nc(CN3CCc4cc(C(F)(F)F)c(OCc5ccc(Cl)cc5Cl)nc4C3)n(C[C@@H]3CCO3)c2c1F` [Compound I-298], the Emax turned out to be 109% and the EC50 worked out at 0.317 nM. Consider `O=C(O)c1ccc2nc(CN3CCc4cc(C(F)(F)F)c(OCc5cc(F)c(Cl)cc5F)nc4C3)n(C[C@@H]3CCO3)c2c1F` [Compound I-299], for which the Emax came out at 115% and the 50% effective concentration (EC50) came out at 0.42 nM.

With `N#Cc1ccc(COc2nc3c(cc2C(F)(F)F)CCN(Cc2nc4ccc(C(=O)O)c(F)c4n2C[C@@H]2CCO2)C3)c(F)c1` [Compound I-300], the Emax stood at 112%. On to `O=C(O)c1ccc2nc(CN3CCc4cc(C(F)(F)F)c(OCc5c(F)cc(Cl)cc5F)nc4C3)n(C[C@@H]3CCO3)c2c1F` [Compound I-301], for which the maximal effect (Emax) stood at 117%. For `O=C(O)c1ccc2nc(CN3CCc4cc(C(F)(F)F)c(OCc5ccc(Cl)cc5)nc4C3)n(C[C@@H]3CCO3)c2n1` [Compound I-302], the maximum response (Emax) was 110% and the response was half-maximal at 1.76 nM (EC50).

`COc1cc(Cl)ccc1COc1nc2c(cc1C(F)(F)F)CCN(Cc1nc3ccc(C(=O)O)nc3n1C[C@@H]1CCO1)C2` [Compound I-303]: the Emax was 119% and a half-maximal effect (EC50) was put at 0.681 nM. Taken in the same sequence, the figures for `O=C(O)c1ccc2nc(CN3CCc4cc(C(F)(F)F)c(OCc5ccc(Cl)cc5Cl)nc4C3)n(C[C@@H]3CCO3)c2n1` [Compound I-304] were 115% and 0.869 nM. As to `O=C(O)c1ccc2nc(CN3CCc4cc(C(F)(F)F)c(OCc5cc(F)c(Cl)cc5F)nc4C3)n(C[C@@H]3CCO3)c2n1` [Compound I-305], the Emax came out at 107% and the EC50 was found to be 0.949 nM.

With `O=C(O)c1ccc2nc(CN3CCc4cc(C(F)(F)F)c(OCc5ccc(Cl)cc5F)nc4C3)n(C[C@@H]3CCO3)c2n1` [Compound I-306], the Emax is 98.7% and the EC50 amounted to 0.876 nM. In the case of `C[C@H]1c2nc(OCc3ccc(F)cc3)c(C(F)(F)F)cc2CCN1Cc1nc2c(F)cc(C(=O)O)cc2n1C[C@@H]1CCO1` [Compound I-307], the Emax amounted to 115% and a half-maximal response (EC50) required 0.0609 nM. Turning to `C[C@H]1c2nc(OCc3ccc(F)cc3)c(C(F)(F)F)cc2CCN1Cc1nc2ccc(C(=O)O)c(F)c2n1C[C@@H]1CCO1` [Compound I-308], the Emax came out at 115% and it took 0.0871 nM to reach a half-maximal effect (EC50). For `C[C@H]1c2cc(OCc3ccc(Cl)cn3)c(Cl)cc2CCN1Cc1nc2ccc(C(=O)O)cc2n1C[C@@H]1CCO1` [Compound I-309], the Emax stood at 84.3% and the EC50 was determined as 2.28 nM. As for `COc1cc(Cl)ccc1COc1cc2c(cc1Cl)CCN(Cc1nc3ccc(C(=O)O)cc3n1C[C@@H]1CCO1)[C@H]2C` [Compound I-310], the Emax is 91% and a half-maximal effect (EC50) was put at 0.415 nM. Turning to `C[C@H]1c2cc(OCc3ccc(Cl)cc3Cl)c(Cl)cc2CCN1Cc1nc2ccc(C(=O)O)cc2n1C[C@@H]1CCO1` [Compound I-311], the Emax was determined as 124% and a half-maximal effect (EC50) was put at 0.972 nM. For `C[C@H]1c2cc(OCc3c(F)cc(Cl)cc3F)c(Cl)cc2CCN1Cc1nc2ccc(C(=O)O)cc2n1C[C@@H]1CCO1` [Compound I-312], the Emax came out at 102% and a half-maximal response (EC50) required 2.03 nM. On to `Cc1ccc(COc2cc3c(cc2Cl)CCN(Cc2nc4ccc(C(=O)O)nc4n2C[C@@H]2CCO2)[C@H]3C)cc1` [Compound I-313], for which the Emax was found to be 94% and a half-maximal effect (EC50) was put at 7.87 nM. In the case of `COc1cc(Cl)ccc1COc1cc2c(cc1Cl)CCN(Cc1nc3ccc(C(=O)O)nc3n1C[C@@H]1CCO1)[C@H]2C` [Compound I-314], the Emax was 98.3% and a half-maximal effect (EC50) was put at 0.537 nM.

As for `C[C@H]1c2cc(OCc3ccc(Cl)cc3F)c(Cl)cc2CCN1Cc1nc2ccc(C(=O)O)nc2n1C[C@@H]1CCO1` [Compound I-315], the maximal effect (Emax) came to 94.3% and the EC50 came to 2.1 nM. Consider `C[C@H]1c2cc(OCc3ccc(Cl)cc3Cl)c(Cl)cc2CCN1Cc1nc2ccc(C(=O)O)nc2n1C[C@@H]1CCO1` [Compound I-316], for which the Emax was 117% and a half-maximal effect (EC50) was put at 1.66 nM. `Cc1ccc(COc2cc3c(cc2Cl)CCN(Cc2nc4ccc(C(=O)O)c(F)c4n2C[C@@H]2CCO2)[C@H]3C)cc1` [Compound I-317]: the Emax worked out at 97.7% and the concentration for a half-maximal effect (EC50) worked out at 2.56 nM. Taken in the same sequence, the figures for `COc1ccc(COc2cc3c(cc2Cl)CCN(Cc2nc4ccc(C(=O)O)c(F)c4n2C[C@@H]2CCO2)[C@H]3C)cc1` [Compound I-318] were 91.3% and 4.55 nM. As for `C[C@H]1c2cc(OCc3ccc(Cl)cc3)c(Cl)cc2CCN1Cc1nc2ccc(C(=O)O)c(F)c2n1C[C@@H]1CCO1` [Compound I-319], the maximum response (Emax) was 95.3% and the response was half-maximal at 2.43 nM (EC50). Taken in the same sequence, the figures for `C[C@H]1c2cc(OCc3ccc(Cl)cn3)c(Cl)cc2CCN1Cc1nc2ccc(C(=O)O)c(F)c2n1C[C@@H]1CCO1` [Compound I-320] were 90.3% and 1.63 nM. For the molecule `C[C@H]1c2cc(OCc3ccc(C4CC4)cc3)c(Cl)cc2CCN1Cc1nc2ccc(C(=O)O)c(F)c2n1C[C@@H]1CCO1` [Compound I-321], the Emax worked out at 84% and the EC50 turned out to be 9.85 nM. The matching figures for `C[C@H]1c2cc(OCc3ccccc3Cl)c(Cl)cc2CCN1Cc1nc2ccc(C(=O)O)c(F)c2n1C[C@@H]1CCO1` [Compound I-322]: 89% and 3.51 nM.

For the molecule `C[C@H]1c2cc(OCc3ccc(F)cc3F)c(Cl)cc2CCN1Cc1nc2ccc(C(=O)O)c(F)c2n1C[C@@H]1CCO1` [Compound I-323], the Emax turned out to be 101% and a half-maximal response (EC50) required 1.7 nM. The matching figures for `C[C@H]1c2cc(OCc3ccc(Cl)cc3F)c(Cl)cc2CCN1Cc1nc2ccc(C(=O)O)c(F)c2n1C[C@@H]1CCO1` [Compound I-324]: 100% and 0.466 nM. For `C[C@H]1c2cc(OCc3ccc(Cl)cc3Cl)c(Cl)cc2CCN1Cc1nc2ccc(C(=O)O)c(F)c2n1C[C@@H]1CCO1` [Compound I-325], the Emax came out at 105% and the EC50 was 0.655 nM.

On to `C[C@H]1c2cc(OCc3cc(F)c(Cl)cc3F)c(Cl)cc2CCN1Cc1nc2ccc(C(=O)O)c(F)c2n1C[C@@H]1CCO1` [Compound I-326], for which the Emax amounted to 109% and a half-maximal effect (EC50) was put at 1.31 nM.

In the case of `C[C@H]1c2cc(OCc3ccc(OC(F)F)cc3F)c(Cl)cc2CCN1Cc1nc2ccc(C(=O)O)c(F)c2n1C[C@@H]1CCO1` [Compound I-327], the Emax turned out to be 100% and the EC50 was 1.06 nM. In the case of `C[C@H]1c2cc(OCc3c(F)cc(F)cc3F)c(Cl)cc2CCN1Cc1nc2ccc(C(=O)O)c(F)c2n1C[C@@H]1CCO1` [Compound I-328], the Emax is 87.3% and a half-maximal effect (EC50) was put at 1.73 nM.

For `C[C@H]1c2cc(OCc3c(F)cc(Cl)cc3F)c(Cl)cc2CCN1Cc1nc2ccc(C(=O)O)c(F)c2n1C[C@@H]1CCO1` [Compound I-329], the Emax was found to be 96.7% and a half-maximal response (EC50) required 1.16 nM. Consider `Cc1ccc(COc2cc3c(cc2Cl)CCN(Cc2nc4c(F)cc(C(=O)O)cc4n2C[C@@H]2CCO2)[C@H]3C)cc1` [Compound I-330], for which the Emax came to 93% and the EC50 was 1.22 nM. The matching figures for `COc1ccc(COc2cc3c(cc2Cl)CCN(Cc2nc4c(F)cc(C(=O)O)cc4n2C[C@@H]2CCO2)[C@H]3C)cc1` [Compound I-331]: 102% and 2.7 nM. For the molecule `C[C@H]1c2cc(OCc3ccc(Cl)cc3)c(Cl)cc2CCN1Cc1nc2c(F)cc(C(=O)O)cc2n1C[C@@H]1CCO1` [Compound I-332], the Emax turned out to be 105% and the EC50 amounted to 1.38 nM.
